# “And” between values parts separate entries of the source, which are not always exact repeats. Equal entries are not always repeated.
# Test system: 317291-083-R-J1-PDC complex spheroid growth
# Assay: Anticancer human tumor 317291-083-R-J1-PDC patient-derived soft tissue sarcoma cell line growth inhibition [Asc]
# Details: for viability, T/C: stronger effect = lower value
# How it was run: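 Concentration series start at each agent's clinical Cmax, or at 10 microM when none is established, and drop in half-log steps; agents are applied alone or together to complex spheroids built with HUVEC and hMSC.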
# [1] = curve of first compound, second compound 0.0316 µM
# [2] = curve of first compound, second compound 0.1 µM
# [3] = curve of first compound, second compound 0.316 µM
# [4] = curve of first compound, second compound 1 µM
# [5] = second compound 0.0316 µM, first compound 0.00316 µM
# [6] = second compound 0.0316 µM, first compound 0.01 µM
# [7] = second compound 0.0316 µM, first compound 0.0316 µM
# [8] = second compound 0.0316 µM, first compound 0.1 µM
# [9] = second compound 0.1 µM, first compound 0.00316 µM
# [10] = second compound 0.1 µM, first compound 0.01 µM
# [11] = second compound 0.1 µM, first compound 0.0316 µM
# [12] = second compound 0.1 µM, first compound 0.1 µM
# [13] = second compound 0.316 µM, first compound 0.00316 µM
# [14] = second compound 0.316 µM, first compound 0.01 µM
# [15] = second compound 0.316 µM, first compound 0.0316 µM
# [16] = second compound 0.316 µM, first compound 0.1 µM
# [17] = second compound 1 µM, first compound 0.00316 µM
# [18] = second compound 1 µM, first compound 0.01 µM
# [19] = second compound 1 µM, first compound 0.0316 µM
# [20] = second compound 1 µM, first compound 0.1 µM
# 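Further: compound exposure lasted seven days after spheroids formed for three days.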
# 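Wherever viability, T/C is given: 100% = DMSO vehicle control wells.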
compound,measurement,setting,value
Cn1ncnc1[C@H]1c2n[nH]c(=O)c3cc(F)cc(c23)N[C@@H]1c1ccc(F)cc1 + Cc1c(S(C)(=O)=O)c(-c2cc(F)cc(N3CCN(c4ccc(NS(=O)(=O)c5ccc(NC(CCN6CCC(C(=O)OCCCP(=O)(O)O)CC6)CSc6ccccc6)c(S(=O)(=O)C(F)(F)F)c5)cc4)CC3)c2)c(-c2ccc(Cl)cc2)n1C(C)C,IC50,[1],> 100 nM
same,IC50,[2],> 100 nM
same,IC50,[3],81 nM
same,IC50,[4],49.7 nM
same,IC50,"curve of first compound, second compound 3.16 µM",55 nM
same,IC50,"curve of first compound, second compound 10 µM",32.5 nM
same,"viability, T/C","second compound 0.0316 µM, first compound 0.000316 µM",93.2%
same,"viability, T/C","second compound 0.0316 µM, first compound 0.001 µM",91.5%
same,"viability, T/C",[5],78.4%
same,"viability, T/C",[6],85.6%
same,"viability, T/C",[7],67.1%
same,"viability, T/C",[8],56.6%
same,"viability, T/C","second compound 0.1 µM, first compound 0.000316 µM",91%
same,"viability, T/C","second compound 0.1 µM, first compound 0.001 µM",90.8%
same,"viability, T/C",[9],88.1%
same,"viability, T/C",[10],77.9%
same,"viability, T/C",[11],64.7%
same,"viability, T/C",[12],55.5%
same,"viability, T/C","second compound 0.316 µM, first compound 0.000316 µM",83.2%
same,"viability, T/C","second compound 0.316 µM, first compound 0.001 µM",74.1%
same,"viability, T/C",[13],85.5%
same,"viability, T/C",[14],66.8%
same,"viability, T/C",[15],63%
same,"viability, T/C",[16],47.1%
same,"viability, T/C","second compound 1 µM, first compound 0.000316 µM",78.4%
same,"viability, T/C","second compound 1 µM, first compound 0.001 µM",77.3%
same,"viability, T/C",[17],71.2%
same,"viability, T/C",[18],55.5%
same,"viability, T/C",[19],63.2%
same,"viability, T/C",[20],40.4%
same,"viability, T/C","second compound 3.16 µM, first compound 0.000316 µM",81.5%
same,"viability, T/C","second compound 3.16 µM, first compound 0.001 µM",65.9%
same,"viability, T/C","second compound 3.16 µM, first compound 0.00316 µM",72.3%
same,"viability, T/C","second compound 3.16 µM, first compound 0.01 µM",60.6%
same,"viability, T/C","second compound 3.16 µM, first compound 0.0316 µM",57.5%
same,"viability, T/C","second compound 3.16 µM, first compound 0.1 µM",43.4%
same,"viability, T/C","second compound 10 µM, first compound 0.000316 µM",99.5%
same,"viability, T/C","second compound 10 µM, first compound 0.001 µM",92.9%
same,"viability, T/C","second compound 10 µM, first compound 0.00316 µM",71.5%
same,"viability, T/C","second compound 10 µM, first compound 0.01 µM",66.2%
same,"viability, T/C","second compound 10 µM, first compound 0.0316 µM",48.3%
same,"viability, T/C","second compound 10 µM, first compound 0.1 µM",41.9%
CCN1CCN(Cc2ccc(Nc3ncc(F)c(-c4cc(F)c5nc(C)n(C(C)C)c5c4)n3)nc2)CC1 + CNC(C)C(=O)NC1CN(S(=O)(=O)c2cccc(S(=O)(=O)N3CCC4CCC(C(=O)NC(c5ccccc5)c5ccccc5)N4C(=O)C(NC(=O)C(C)NC)C3)c2)CCC2CCC(C(=O)NC(c3ccccc3)c3ccccc3)N2C1=O,IC50,"curve of first compound, second compound 0.00316 µM",345 nM
same,IC50,"curve of first compound, second compound 0.01 µM",320 nM
same,IC50,[1],140 nM
same,IC50,[2],71 nM
same,IC50,[3],18.1 nM
same,IC50,[4],< 3.16 nM
same,"viability, T/C","second compound 0.00316 µM, first compound 0.00316 µM",54.7%
same,"viability, T/C","second compound 0.00316 µM, first compound 0.01 µM",58.7%
same,"viability, T/C","second compound 0.00316 µM, first compound 0.0316 µM",56.8%
same,"viability, T/C","second compound 0.00316 µM, first compound 0.1 µM",65%
same,"viability, T/C","second compound 0.00316 µM, first compound 0.316 µM",48.9%
same,"viability, T/C","second compound 0.00316 µM, first compound 1 µM",28%
same,"viability, T/C","second compound 0.01 µM, first compound 0.00316 µM",89.1%
same,"viability, T/C","second compound 0.01 µM, first compound 0.01 µM",90%
same,"viability, T/C","second compound 0.01 µM, first compound 0.0316 µM",79.2%
same,"viability, T/C","second compound 0.01 µM, first compound 0.1 µM",76%
same,"viability, T/C","second compound 0.01 µM, first compound 0.316 µM",48.8%
same,"viability, T/C","second compound 0.01 µM, first compound 1 µM",31.6%
same,"viability, T/C",[5],80.3%
same,"viability, T/C",[6],79.6%
same,"viability, T/C",[7],64.9%
same,"viability, T/C",[8],58.4%
same,"viability, T/C","second compound 0.0316 µM, first compound 0.316 µM",35.7%
same,"viability, T/C","second compound 0.0316 µM, first compound 1 µM",40.9%
same,"viability, T/C",[9],60.9%
same,"viability, T/C",[10],50.2%
same,"viability, T/C",[11],53.8%
same,"viability, T/C",[12],45.6%
same,"viability, T/C","second compound 0.1 µM, first compound 0.316 µM",43.5%
same,"viability, T/C","second compound 0.1 µM, first compound 1 µM",22.2%
same,"viability, T/C",[13],58.6%
same,"viability, T/C",[14],49.4%
same,"viability, T/C",[15],42.8%
same,"viability, T/C",[16],48%
same,"viability, T/C","second compound 0.316 µM, first compound 0.316 µM",33.4%
same,"viability, T/C","second compound 0.316 µM, first compound 1 µM",22.7%
same,"viability, T/C",[17],32.9%
same,"viability, T/C",[18],36.6%
same,"viability, T/C",[19],36.6%
same,"viability, T/C",[20],31.4%
same,"viability, T/C","second compound 1 µM, first compound 0.316 µM",32.2%
same,"viability, T/C","second compound 1 µM, first compound 1 µM",19.5%
CNC(C)C(=O)NC1CN(S(=O)(=O)c2cccc(S(=O)(=O)N3CCC4CCC(C(=O)NC(c5ccccc5)c5ccccc5)N4C(=O)C(NC(=O)C(C)NC)C3)c2)CCC2CCC(C(=O)NC(c3ccccc3)c3ccccc3)N2C1=O (stereo unspecified),"viability, T/C",compound 0.0316 µM,72.8% [middle of 9 runs]
same,IC50,curve of compound,254 nM and 416 nM
